Measured values: patent US8338471B2, “(2,5-dioxoimidazolidin-i-yl)-n-hydroxy-acetamides as metalloproteinase inhibitors” (Medivir AB, priority 2005, dated 2012)

Assays:
Assay type in all cases: biochemical
recombinant human MMP-12 = target: T1, recombinant human MMP-12 (Homo sapiens, UniProt P39900); test: MMP-12 enzyme assay (FRET substrate)
T1 construct: purchased R&D Systems; host or cells: mouse myeloma cell line NS-40 (so in the source)
Description: A typical MMP-12 enzyme assay employs recombinant human MMP-12 catalytic domain expressed and purified as described by Parkar A. A. et al, (2000), Protein Expression and Purification, 20:152. The purified enzyme can be used to monitor inhibitors of activity as follows: MMP-12 (50 ng/ml final concentration) is incubated for 60 minutes at room temperature with the synthetic substrate Mac-Pro-Cha-Gly-Nva-His-Ala-Dpa-NH2 in assay buffer (0.1M “Tris-HCl” (trade mark) buffer, pH 7.3 containing O.1M NaCl, 20 mM CaCl2, 0.020 mM ZnCl and 0.05% (w/v) “Brij 35” (trade mark) detergent) in the presence (5 concentrations) or absence of inhibitors. Activity is determined by measuring the fluorescence at λex 320 nm and λem 405 nm. Percent inhibition is calculated as follows: % Inhibition is equal to the (Fluorescenceplus inhibitor−Fluorescencebackground); divided by the (Fluorescenceminus inhibitor−Fluorescencebackground);
A favoured assay employs full length recombinant human MMP-12, amino acid residues 1 to 470 (Shapiro et al 1993, J Biol Chem 268:23824-23829) expressed in mouse myeloma cell line NS-40. The purified rhMMP-12 typically has the N terminal sequence L17PLNSSTSLE and an SDS-PAGE apparent molecular mass of approx. 56 kDa. Such proteins are available from R&D Systems, USA as a lyophilised 0.2 um filtered solution of 25 mM MES, 0.15M NaCl, 10 mMCaCl2, 0.15% Brij 35, pH 5.5. Auto-activation of the rhMMP-12 can be achieved by dilution to 0.05 mg/ml into TCNB buffer (50 mMTris, 10 mM CaCl2, 0.15M NaCl, 0.05% Brij 35, pH 7) and incubation at 37 degrees for 30 hours. A preferred buffer for MMP work is 50 mM Tris.HCl, pH 7.5, 200 mM Ca acetate.
Suitable FRET substrates include (7-methoxycoumarin-4-yl)acetyl-Pro-Leu-Gly-Leu-(3-(2,4-dinitrophenoyl)-L-2,3-diaminopropionyl)-Ala-Arg-NH2, commercially available from R&D Systems, USA. Typical specific activities are >500 picomol/min/ug, with rhMMP-12 measured with 10 uM of this substrate, 20 ng activated enzyme in 100 ul TCNB buffer at room temperature.
An alternative general MMP substrate is Dnp-PLGLWAD-R-NH2.
Category A indicates ≦50 nM inhibition, category B indicates 51-200 nM inhibition and category C indicates >200 nM: […]

recombinant human TACE = target: T2, recombinant human TACE (Homo sapiens, UniProt P78536); test: TACE enzyme assay (FRET substrate), selectivity versus MMP-12; details: fold difference in Ki for TACE compared to MMP-12
T2 construct: purchased R&D Systems
Description: The activity was measured by a continuous detection of increased fluorescence intensity during 12 min. The substrate consisted of a peptide with a fluorescent donor 7-methoxycoumarin (Mca) and a quenching acceptor 2,4-dinitrophenyl group (Dpa), typically Mca-P-L-A-Q-A-V-Dpa-R-S-S-S-R-NH2 (R&D Systems, ES003). The cleavage site by TACE is the peptide bond between Ala and Val. The compounds were tested at a range of concentrations while the enzyme and substrate concentrations were fixed. A typical TACE assay employs recombinant human TACE (supplied by R&D Systems) in an assay buffer (25 mM Tris-HCl, pH=9.0, 2.5 μM ZnCl2, 0.005% Brij 35). The enzyme concentration (TACE) used was 100 ng/ml, the substrate was prepared at a 100 μM stock solution in DMSO and a 96-well polypropylene plate was used for the reaction mixtures. To each well of the plate was added assay buffer 90.0 μl, enzyme (TACE) 0.09 μl and inhibitor 1 μl. The reactions were started by addition of substrate 10 μl/well, giving a substrate concentration of 10 μM and a total volume of 100 μl/well. The total concentration of DMSO was not above 1%. The assay was performed at ambient temperature. Product fluorescence ([…]) was monitored with a Thermo Labsystems Fluoroskan Ascent plate reader. The Ki was determined by Prism Software.
(§1) The selectivity for MMP-12 over MMP-3 and TACE was evaluated for a representative selection of the compounds of the invention by comparing the Ki figures obtained when tested in the corresponding enzyme assays, such as those described above. The selectivity is presented as the fold difference in Ki for TACE and MMP-3 compared to MMP-12 and is calculated as the ratio Ki(TACE)/KiMMP-12 and Ki(MMP-3)/KiMMP-12 respectively.

recombinant human MMP-3 = target: T3, recombinant human MMP-3 (Homo sapiens, UniProt P08254); test: MMP-3 enzyme assay (FRET substrate), selectivity versus MMP-12; details: fold difference in Ki for MMP-3 compared to MMP-12
T3 construct: purchased R&D Systems
Description: The activity was measured by a continuous detection of increased fluorescence intensity during 12 min. The substrate consisted of a peptide with a fluorescent donor 7-methoxycoumarin (Mca) and a quenching acceptor 2,4-dinitrophenyl group (Dpa), typically Mca-Arg-Pro-Lys-Pro-Val-Glu-Nval-Trp-Arg-Lys(Dnp)-NH2 (R&D Systems, ES002). The cleavage site by MMP-3 is the peptide bond between Glu and Nval. The compounds were tested at a range of concentrations, the enzyme concentration (MMP-3) was fixed at 400 ng/ml and the substrate concentrations was 10 μM. The MMP-3 assay used employs recombinant human MMP-3 (supplied by R&D Systems) in an assay buffer of 50 mM Tris-HCl, 200 mM calcium acetate at pH=7.5. The MMP-3 enzyme was preactivated by dilution to 0.119 mg/ml into 1 mM APMA (p-aminophenylmercuric acetate) followed by incubation at 37° C. for 24 hours. The substrate was prepared at a 100 μM stock solution in DMSO and a 96-well polypropylene plate was used for the reaction mixtures. To each well of the plate was added assay buffer 90.0 μl, enzyme (MMP-3) 0.3 μl and inhibitor 1 μl. The reactions were started by addition of substrate, 10 μl/well, to a total volume of 100 μl/well. The total concentration of DMSO was not above 1%. The assay was performed at ambient temperature. Product fluorescence ([…]) was monitored with a Thermo Labsystems Fluoroskan Ascent plate reader. The Ki was determined by Prism Software.
as §1

T3 sequence (P08254 100-477): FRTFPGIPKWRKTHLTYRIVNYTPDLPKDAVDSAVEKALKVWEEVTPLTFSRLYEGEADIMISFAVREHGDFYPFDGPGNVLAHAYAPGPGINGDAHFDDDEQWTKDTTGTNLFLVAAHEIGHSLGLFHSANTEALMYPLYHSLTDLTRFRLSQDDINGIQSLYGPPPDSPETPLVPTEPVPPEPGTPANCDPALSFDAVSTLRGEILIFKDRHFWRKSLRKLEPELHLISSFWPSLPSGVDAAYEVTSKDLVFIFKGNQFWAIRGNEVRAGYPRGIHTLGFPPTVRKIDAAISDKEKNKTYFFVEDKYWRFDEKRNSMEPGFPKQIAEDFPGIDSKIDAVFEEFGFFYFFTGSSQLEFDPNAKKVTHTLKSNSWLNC
T2 sequence (P78536 215-824): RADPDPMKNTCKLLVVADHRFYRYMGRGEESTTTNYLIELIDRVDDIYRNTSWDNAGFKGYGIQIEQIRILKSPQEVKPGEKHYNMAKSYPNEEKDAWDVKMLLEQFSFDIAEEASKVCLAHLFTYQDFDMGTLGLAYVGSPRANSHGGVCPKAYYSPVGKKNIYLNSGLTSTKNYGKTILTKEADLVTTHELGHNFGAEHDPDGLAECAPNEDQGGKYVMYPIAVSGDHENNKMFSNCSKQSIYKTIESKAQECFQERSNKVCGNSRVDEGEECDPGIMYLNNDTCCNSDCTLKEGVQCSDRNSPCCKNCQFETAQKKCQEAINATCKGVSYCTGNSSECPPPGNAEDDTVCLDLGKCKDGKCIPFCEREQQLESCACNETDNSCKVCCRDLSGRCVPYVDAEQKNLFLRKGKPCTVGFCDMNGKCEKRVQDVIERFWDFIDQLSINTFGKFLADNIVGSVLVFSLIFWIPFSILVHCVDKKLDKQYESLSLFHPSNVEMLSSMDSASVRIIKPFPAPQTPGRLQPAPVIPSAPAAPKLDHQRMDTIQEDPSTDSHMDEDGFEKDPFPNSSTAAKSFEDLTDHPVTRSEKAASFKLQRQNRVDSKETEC
T1 sequence (P39900 106-470): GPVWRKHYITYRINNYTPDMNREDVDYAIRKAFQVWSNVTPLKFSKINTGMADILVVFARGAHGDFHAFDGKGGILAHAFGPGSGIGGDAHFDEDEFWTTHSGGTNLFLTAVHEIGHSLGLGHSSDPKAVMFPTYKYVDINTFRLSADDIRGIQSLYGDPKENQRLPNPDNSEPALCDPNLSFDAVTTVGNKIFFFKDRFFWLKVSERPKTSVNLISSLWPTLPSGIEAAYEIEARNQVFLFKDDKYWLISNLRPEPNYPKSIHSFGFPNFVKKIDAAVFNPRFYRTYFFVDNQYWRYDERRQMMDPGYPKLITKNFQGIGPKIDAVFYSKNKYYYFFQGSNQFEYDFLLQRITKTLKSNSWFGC

Ki (recombinant human MMP-12): ≤ 50 nM | Ki(TACE)/Ki(MMP-12) (recombinant human TACE): 390 | Ki(MMP-3)/Ki(MMP-12) (recombinant human MMP-3): 150
SMILES: CC(C)[C@H](C(=O)NO)N1C(=O)N[C@@H](CCc2ccc(F)cc2)C1=O [Example 38, 2-{4-[2-(4-Fluoro-phenyl)-ethyl]-2,5-dioxoimidazolidin-1-yl}-N-hydroxy-3-methylbutyramide]
